Assay results published in US20230321140A1, “MULTIPLE MEDIATORS TARGETED MULTIFUNCTIONAL NANOPARTICLES AND USES THEREOF” (The Trustees of Columbia University in the City of New York, priority 2022, published 2023).

Columns and labels:
[1] = tested on: calf thymus DNA; experiment: PicoGreen DNA binding affinity assay; settings: TE buffer without FBS; calf thymus DNA 0.5 μg/mL
Experimental: FIGS. 2A-B show DNA binding affinity of NPs at different NP:DNA mass ratios (see legend) in TE buffer without Fetal Bovine Serum (FBS) (A) and with 10% FBS (B). [Calf thymus DNA]=0.5 μg/mL. (C) Cytotoxicity of NPs to RAW 264.7 cells. (D) Colocalization of FITC-labeled TA-Zn-Gen NPs and Cy5-labeled CpG in lysosomes (CLSM images). Scale bar, 10 μm. Quant-iT PicoGreen (12.5 μL) and calf thymus DNA ([…], 25 μL) were mixed with 1×TE buffer (10 mL) in the dark. NPs at different concentrations in 100 μL together with 100 μL of the above solution were added to a 96-well black plate and incubated at 37° C. for 30 min. The fluorescence intensity of the Picogreen-DNA complex at 520 nm was measured with a multiwell plate reader via excitation at 490 nm.

[2] = tested on: E. coli; experiment: Antibacterial effect (OD 600 nm); type: cell-based, Escherichia coli; settings: 6 h and 12 h
Experimental: E. coli was used to investigate the anti-bacterial effect of NPs. E. coli diluted in Luria-Bertani liquid medium were seeded in a 96-well plate at a density of 10^6/mL and were treated with NPs at different concentrations. After 6 h and 12 h of incubation with NPs at 37° C., the proliferation of bacteria was determined with a multiwell plate reader by measuring the OD at 600 nm.

Molecule | DNA binding affinity [1] | antibacterial activity, NPs versus free components [2]
O=C(OC[C@H]1O[C@@H](OC(=O)c2cc(O)c(O)c(OC(=O)c3cc(O)c(O)c(O)c3)c2)[C@H](OC(=O)c2cc(O)c(O)c(OC(=O)c3cc(O)c(O)c(O)c3)c2)[C@@H](OC(=O)c2cc(O)c(O)c(OC(=O)c3cc(O)c(O)c(O)c3)c2)[C@@H]1OC(=O)c1cc(O)c(O)c(OC(=O)c2cc(O)c(O)c(O)c2)c1)c1cc(O)c(O)c(OC(=O)c2cc(O)c(O)c(O)c2)c1 [tannic acid] | also exhibited DNA binding | slight antibacterial activity at a high concentration
gentamicin |  | potent concentration-dependent antibacterial effect
